Here are results for 4 compounds from article PMC2767189 (Clinical Pharmacology and Therapeutics, 2008).

For series [1] the following is noted: cited from earlier work.
Series [2] can be described thus: Intracellular triphosphate. The format is in vivo, human. Particulars: median ratio, 4 h after dose vs predose; all subjects.
The next series can be described thus: clinical. As to conditions: human, plasma, oral, 300 mg, 300 mg twice daily; for AUC: ABC AUC; for Cmax: ABC Cmax; for Vd/F: ABC Vd/F (volume of distribution); for half-life: ABC half-life.
The conditions of series [3]: cited from earlier work. This is another data set of the same source.
The conditions of series [4]: 300 mg twice daily.
Series [5] concerns the target HIV-1 reverse transcriptase. As to conditions: cited from earlier work.

Where “and” joins values, the source holds several entries; their conditions need not be identical. Equal entries are not always repeated. Where two headings read alike, the source gives them in different places.

On to `Nc1ccn([C@@H]2CS[C@H](COP(=O)(O)OP(=O)(O)OP(=O)(O)O)O2)c(=O)n1` [Lamivudine-TP, lamivudine triphosphate], for which, in series [1] (range of averages in previous studies), the “intracellular lamivudine-TP average concentrations” value is on record as 1.7-8.6 pmol/10^6 cells. In series [2], the “C4/C0 ratio of intracellular TP concentrations” value (shortened to “C4/C0 ratio”) was 1.31 and 1.3.

Usually AUC stands for the area under the concentration-time curve, a measure of exposure. One may read the Cmax as the maximum level reached in the sampled fluid or tissue. By Vd/F is commonly meant the apparent distribution volume after extravascular dosing. Broadly, the half-life is the time in which the quantity being followed falls by half. A lower half-life goes with rapid decline. As to `Nc1nc(NC2CC2)c2ncn([C@H]3C=C[C@@H](CO)C3)c2n1` [ABC, abacavir], the AUC is 7350 ng·h/mL in the series “clinical” (mean (SD), <18 years (n = 15)); 7480 ng·h/mL in “clinical” (mean (SD), Total (n = 30)); 7610 ng·h/mL in “clinical” (mean (SD), ≥18 years (n = 15)); 7010 ng·h/mL in the series “clinical” (median, <18 years (n = 15)); 6720 ng·h/mL in the series “clinical” (median, Total (n = 30)); 6590 ng·h/mL in “clinical” (median, ≥18 years (n = 15)). Further, the Cmax is 2790 ng/mL in “clinical” (mean (SD), <18 years (n = 15)); 2860 ng/mL in the series “clinical” (mean (SD), Total (n = 30)); 2940 ng/mL in the series “clinical” (mean (SD), ≥18 years (n = 15)); 2580 ng/mL in the series “clinical” (median, <18 years (n = 15)); 2620 ng/mL in “clinical” (median, Total (n = 30)); 2740 ng/mL in the series “clinical” (median, ≥18 years (n = 15)). Besides, the Vd/F in the series “clinical” (mean (SD), <18 years (n = 15)) is 82.9 L and 1.35 L/kg; in the series “clinical” (mean (SD), Total (n = 30)) it was 77.8 L and 1.19 L/kg; in the series “clinical” (mean (SD), ≥18 years (n = 15)), 72.8 L and 1.04 L/kg; in “clinical” (median, <18 years (n = 15)), 67.1 L and 0.9 L/kg; in “clinical” (median, Total (n = 30)), 71.5 L and 1.05 L/kg; in the series “clinical” (median, ≥18 years (n = 15)), 73.5 L and 1.1 L/kg. Moreover, the half-life in “clinical” (mean (SD), <18 years (n = 15)) is 1.23 h; in the series “clinical” (mean (SD), Total (n = 30)), 1.19 h; in the series “clinical” (mean (SD), ≥18 years (n = 15)), 1.14 h; in the series “clinical” (median, <18 years (n = 15)), 1.22 h; in the series “clinical” (median, Total (n = 30)) it was 1.23 h; in “clinical” (median, ≥18 years (n = 15)), 1.34 h. Further, the “observed clearance seen in adults (reference value for hypothesis test on AUC)” value in series [3] (adults, reference not printed at the place) was 6000 ng·h/mL. Further, the “abacavir steady-state AUC” value in series [3] (older adults, 300 mg twice daily (~4 mg/kg)) was 5000 to 6000 ng·h/mL. The “abacavir weight-adjusted apparent oral clearance” value in series [3] (translated from 0.86 l/min for a 70-kg adult, ref 12 (McDowell et al.)) was 12.3 mL/min/kg. In addition, the “ABC CL/F (apparent oral clearance)” value in series [4] (mean (SD), <18 years (n = 15)) was 47.47 (19.52) l/h; in series [4] (mean (SD), Total (n = 30)), 45.44 (16.87) l/h; in series [4] (mean (SD), ≥18 years (n = 15)), 43.40 (14.13) l/h; in series [4] (median, <18 years (n = 15)) it was 42.80 L/h; in series [4] (median, Total (n = 30)) it was 44.70 L/h; in series [4] (median, ≥18 years (n = 15)), 45.50 L/h. For the same compound, the “ABC CL/F adjusted for body surface area” value in series [4] (mean (SD), <18 years (n = 15)) is on record as 481.60 (192.62) ml/min/m^2; in series [4] (mean (SD), Total (n = 30)), 437.77 (168.51) ml/min/m^2; in series [4] (mean (SD), ≥18 years (n = 15)), 393.93 (132.66) ml/min/m^2; in series [4] (median, <18 years (n = 15)), 382.00 ml/min/m^2; in series [4] (median, Total (n = 30)) it was 390.50 ml/min/m^2; in series [4] (median, ≥18 years (n = 15)) it was 399.00 ml/min/m^2. Also, the “ABC CL/F adjusted for weight” value in series [4] (mean (SD), <18 years (n = 15)) is recorded as 13.03 (5.31) ml/min/kg; in series [4] (mean (SD), Total (n = 30)) it was 11.73 (4.84) ml/min/kg.

In the case of `Cc1cn([C@H]2C[C@H](N=[N+]=[N-])[C@@H](CO[P@](=O)(O)O[P@](=O)(O)OP(=O)(O)O)O2)c(=O)[nH]c1=O` [Zidovudine-TP, zidovudine triphosphate], the “intracellular zidovudine-TP concentrations” value in series [1] (range seen in previous studies) was 6.3-58 fmol/10^6 cells. Further, the “C4/C0 ratio” value in series [2] is on record as 1.95.

The term Ki denotes the equilibrium dissociation constant of an inhibitor or competing ligand from its target. In the case of `Nc1nc(=O)c2ncn([C@H]3C=C[C@@H](COP(=O)(O)OP(=O)(O)OP(=O)(O)O)C3)c2[nH]1` [Carbovir-TP, carbovir-triphosphate], in series [1] (range reported from previous studies), the “intracellular carbovir-TP concentrations” value is listed as 4-290 fmol/10^6 cells. Moreover, in series [2], the “C4/C0 ratio” value was 1.89 and 1.9. For the same compound, the “carbovir-TP reverse transcriptase Ki expressed as intracellular amount” value in series [5] (equivalent of 21 nmol/l) is ~ 10 fmol/10^6 cells. The Ki in series [5] (read-out: carbovir-TP reverse transcriptase Ki, ex vitro) is 21 nM.
